The conditions of this assay: for time to therapeutic effect (time when dP/dt max leveled off): n=1.

The source of these data is patent US20230094196A1, “AN IMPLANTABLE MEDICAL DEVICE” (NATIONAL UNIVERSITY OF IRELAND, GALWAY, priority 2019, published 2023).

Molecules are shown by their SMILES. Read-outs that look alike come from different tables or passages of the source.

Procedure: Female Sprague Dawley rats (225-300 g) were anaesthetized using isoflurane (1-3% isoflurane in oxygen). Animals were treated with a single dose of sustained release buprenorphine (Bup-SR) at 1 mg/kg subcutaneously to control pain. 2 device of the invention reservoirs (porous or non-porous) were implanted subcutaneously in the rat, the device implantation procedure is shown in FIG. 3A. Briefly, the hair on the back of the rat was removed and surgical sites were prepared with 3 washes of Betadine and 70% ethanol. Devices were sterilized using ethylene oxide prior to implantation. An anterior incision was made at the base of the neck for the and 2 posterior incisions were made 9 cm from the original incision along the back of the rat, 1 cm lateral of the spine. A blunt dissection was made at all incisions and a forceps was used to tunnel subcutaneously from the anterior to the posterior sites. A vascular access button, or self-sealing subcutaneous port (VAB95BS-MRI, VABM2B/22R22, VABR4B/22 Instech Laboratories), was connected to the dorsal end of the catheter of each device of the invention reservoir. The port was placed in position at the base of the neck and the devices tunneled posteriorly into position. The port was secured to the underlying fascia using at least one interrupted suture (5-0 monofilament). Each device of the invention reservoir was secured to the underlying fascia with one suture at either side (7-0 monofilament). The skin was closed with interrupted sutures (5-0 monofilament) and the animal was allowed to recover on a heated pad. 3 mL of warm saline were administered subcutaneously. The following day, one of the two implanted device of the invention reservoirs was actuated at controlled input pressures of 1 PSI (Regime 1) or 2 PSI (Regime 2) at 1 Hz every 12 hours for 14 days (FIG. 3b) and compared to the non-actuated control reservoir for analysis. On day 15, animals were sacrificed by CO2. Following sacrifice, each device and the immediate surrounding tissue were extracted.

Take `CNC[C@H](O)c1ccc(O)c(O)c1` [epinephrine]: the “time to therapeutic effect (time when dP/dt max leveled off)” value (actuated device, 35 uL of 1 mg/ml) is about 40 s and the “time to therapeutic effect (time when dP/dt max leveled off)” value (control (non-actuated) device, same animal) is recorded as about 170 s. Also, the “cyclical average dp/dt max in the first 40 s after delivery, actuation group compared with control” value (first 40 s after delivery, P<0.0001) is reported as “significantly higher”.
